From paper PMC7181201, “Dual P-Glycoprotein and CA XII Inhibitors: A New Strategy to Reverse the P-gp Mediated Multidrug Resistance (MDR) in Cancer Cells” (Molecules, 2020)
Values joined by “and” are separate entries in the source; they are usually repeats but may differ in a detail not shown here. Equal entries are not always repeated.

Tests used:
K562/DOX cells [1] = tested on: K562/DOX cells; parameters: method as in PMID 30947123; settings: cited from earlier work
LoVo/DOX cells [2] = experiment: Doxorubicin IC50 and IC20 evaluation on LoVo/DOX cells (MTT)
Protocol: (§6) For the LoVo/DOX cell line, the doxorubicin growth inhibition was determined by the MTT assay and the IC50 and IC20 values were determined. Approximately 10^4 cells/well were plated onto 96-well plates and allowed to attach for 24 h before treatment with a range of drug concentrations from 3 × 10^−11 to 3 × 10^−5 M for 3 days; each concentration was repeated four times. At the end of the incubation the cells were processed according to the MTT protocol [43] and the optical density of the chromogenic product was measured at 570 nm. IC50 and IC20 values were determined graphically from relative survival curves obtained by GraphPad Prism 5 software (GraphPad, San Diego, CA, USA).
(§7) The resistance index to doxorubicin of the two resistant cell lines was obtained from the ratio between the doxorubicin IC50 (µM) values on the resistant and parental lines.

LoVo cells = experiment: Doxorubicin IC50 on parental LoVo cells (MTT); settings: Homo sapiens, 72 h, read-out: doxorubicin IC50
Protocol: as §6, §7

K562/DOX cells [3] = experiment: Enhancement of doxorubicin cytotoxicity on K562/DOX cells (MTT); type: cell-based, human; settings: 72 h
Protocol: (§1) To evaluate the enhancement of doxorubicin toxicity in the presence of the tested compounds, the cells, in exponential growth phase, were seeded at 10^4 cells/well and solutions of either compounds or doxorubicin, or a solution of doxorubicin in combination with the compounds, were added to the wells repeated in quadruplicate. […] The MTT working solution was then added and plates were further incubated for 3 h. Following incubation cells and formazan crystals were inspected microscopically. The supernatant was then carefully removed by slow aspiration and the formazan crystals were dissolved in […] of acidified isopropanol solution. The absorbance of the solution was then read on an automated plate reader at a wavelength of 570 nm. The increase in the toxicity of doxorubicin was quantified by the ratio between the growth of the cell sample treated with IC20 of doxorubicin and that of the cell sample treated with IC20 of doxorubicin in combination with the various concentrations of the tested compounds.

LoVo/DOX cells [4] = experiment: Enhancement of doxorubicin cytotoxicity on LoVo/DOX cells (MTT); type: cell-based, human; settings: 72 h
Protocol: as §1

hCA I = molecular target: T1, hCA I (Homo sapiens, UniProt P00915); experiment: Stopped-flow CO2 hydrase assay, hCA I; type: biochemical; settings: mean from 3 assays
T1 construct: made in house
Protocol: (§2) An SX.18MV-R Applied Photophysics (Oxford, UK) stopped-flow instrument was used to assay the catalytic/inhibition of various CA isozymes. […] Saturated CO2 solutions in water at 25 °C were used as a substrate. Stock solutions of inhibitors were prepared at a concentration of 10 μM (in DMSO-water 1:1, v/v) and dilutions up to 0.01 nM done with the assay buffer mentioned above. […] Inhibitor and enzyme solutions were preincubated together for 10 min at room temperature prior to the assay, in order to allow for the formation of the E–I complex. […] The inhibition constants were obtained by non-linear least-squares methods using the Cheng–Prusoff equation, as reported earlier, and represent the mean from at least three different determinations. All CA isozymes used here were recombinant proteins obtained as reported earlier by our group.

hCA XII = molecular target: T2, hCA XII (Homo sapiens, UniProt O43570); experiment: Stopped-flow CO2 hydrase assay, hCA XII; type: biochemical; settings: stopped flow, mean from 3 assays
T2 construct: made in house
Protocol: as §2

P-gp [5] = molecular target: T3, P-gp (Homo sapiens, UniProt P08183); experiment: Rhodamine-123 uptake test on K562/DOX cells (flow cytometry); type: cell-based
T3 construct: doxorubicin resistant K562/DOX cell line overexpresses almost exclusively the transporter membrane protein P-gp; endogenous in cells; host or cells: K562/DOX (doxorubicin-selected human erythroleukemia cells)
Protocol: The results were expressed as the FR (fluorescence ratio), which is the ratio between the average fluorescence intensity of rhodamine in the presence and in the absence of modulators. Value 1 was attributed to the average fluorescence intensity of the samples exposed only to rhodamine.
(§3) An aliquot of cells (control) was incubated with the fluorochrome in the absence of inhibitors.
(§4) At the end of the uptake, cells were sedimented, washed twice in ice-cold PBS, placed in PBS on ice, and kept in the dark until flow cytometric analysis.
(§5) The histograms were generated by program GraphPad Prism 5 (GraphPad Prism software, Inc., San Diego, CA, USA); the data were obtained from the ratio between the average fluorescence intensity of the samples preincubated with the compounds under study and subsequently exposed to rhodamine, and the fluorescence of the sample exposed only to the rhodamine.

hCA IX = molecular target: T4, hCA IX (Homo sapiens, UniProt Q16790); experiment: Stopped-flow CO2 hydrase assay, hCA IX; type: biochemical; settings: stopped flow, mean from 3 assays
T4 construct: made in house
Protocol: as §2

P-gp [6] = molecular target: T3, P-gp; experiment: Rhodamine-123 uptake test on LoVo/DOX cells (flow cytometry); type: cell-based
Protocol: The selected compounds were preliminary studied at 3, 10 and 30 µM concentrations by the MTT (3-(4,5-dimethylthiazolyl-2)-2,5-diphenyltetrazolium bromide) assay to evaluate their intrinsic cytotoxicity on LoVo/DOX cell line.
as §3, §4, §5

hCA II = molecular target: T5, hCA II (Homo sapiens, UniProt P00918); experiment: Stopped-flow CO2 hydrase assay, hCA II; type: biochemical; settings: stopped flow, mean from 3 assays
T5 construct: made in house
Protocol: as §2

[7] = doxorubicin 0.5 µM (IC20) + compound 3 µM
[8] = doxorubicin 0.3 µM (IC20) + compound 3 µM
[9] = doxorubicin 0.3 µM (IC20) + compound 10 µM
[10] = doxorubicin 0.5 µM (IC20) + compound 10 µM

T2 sequence (O43570 25-354): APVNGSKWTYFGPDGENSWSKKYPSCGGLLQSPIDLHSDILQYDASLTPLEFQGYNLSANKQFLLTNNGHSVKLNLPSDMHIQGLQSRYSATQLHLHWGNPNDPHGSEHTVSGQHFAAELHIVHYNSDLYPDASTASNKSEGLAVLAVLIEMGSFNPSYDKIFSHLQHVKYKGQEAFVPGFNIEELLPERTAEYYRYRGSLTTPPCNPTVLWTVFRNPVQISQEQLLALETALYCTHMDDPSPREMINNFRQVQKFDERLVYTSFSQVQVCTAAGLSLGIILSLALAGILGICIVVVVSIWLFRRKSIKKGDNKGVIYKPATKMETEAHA
T3 sequence (P08183 whole entry): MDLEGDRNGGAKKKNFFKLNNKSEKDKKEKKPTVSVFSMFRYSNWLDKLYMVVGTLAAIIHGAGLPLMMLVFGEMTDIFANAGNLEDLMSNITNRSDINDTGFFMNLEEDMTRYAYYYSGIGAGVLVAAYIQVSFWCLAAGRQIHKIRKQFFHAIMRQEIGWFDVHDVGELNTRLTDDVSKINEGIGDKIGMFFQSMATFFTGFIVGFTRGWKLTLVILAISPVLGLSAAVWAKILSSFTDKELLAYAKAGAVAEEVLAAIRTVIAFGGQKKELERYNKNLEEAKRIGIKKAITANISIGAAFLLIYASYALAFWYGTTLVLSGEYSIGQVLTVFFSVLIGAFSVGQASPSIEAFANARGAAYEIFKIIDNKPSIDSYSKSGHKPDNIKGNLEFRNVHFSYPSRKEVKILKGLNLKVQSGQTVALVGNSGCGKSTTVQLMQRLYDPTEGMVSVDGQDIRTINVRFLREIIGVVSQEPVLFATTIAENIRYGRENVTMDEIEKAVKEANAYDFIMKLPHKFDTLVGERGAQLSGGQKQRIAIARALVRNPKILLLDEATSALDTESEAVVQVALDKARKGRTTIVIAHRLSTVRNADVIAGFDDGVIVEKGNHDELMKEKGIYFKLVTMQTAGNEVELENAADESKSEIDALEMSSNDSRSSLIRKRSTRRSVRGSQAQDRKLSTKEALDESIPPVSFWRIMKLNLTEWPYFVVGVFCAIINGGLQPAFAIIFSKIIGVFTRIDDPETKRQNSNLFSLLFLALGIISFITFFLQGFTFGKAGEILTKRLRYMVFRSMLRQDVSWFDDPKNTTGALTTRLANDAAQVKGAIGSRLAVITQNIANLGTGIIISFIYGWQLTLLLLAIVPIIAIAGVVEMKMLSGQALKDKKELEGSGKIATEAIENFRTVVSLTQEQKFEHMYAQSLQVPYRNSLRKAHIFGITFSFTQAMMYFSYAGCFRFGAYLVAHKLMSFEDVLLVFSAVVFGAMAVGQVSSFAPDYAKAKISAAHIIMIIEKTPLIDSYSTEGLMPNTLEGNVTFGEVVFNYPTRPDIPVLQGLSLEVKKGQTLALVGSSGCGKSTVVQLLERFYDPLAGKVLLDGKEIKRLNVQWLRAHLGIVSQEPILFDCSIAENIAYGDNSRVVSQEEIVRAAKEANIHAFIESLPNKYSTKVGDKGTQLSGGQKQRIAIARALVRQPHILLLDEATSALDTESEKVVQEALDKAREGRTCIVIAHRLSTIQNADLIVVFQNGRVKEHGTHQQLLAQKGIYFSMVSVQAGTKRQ
T1 sequence (P00915 whole entry): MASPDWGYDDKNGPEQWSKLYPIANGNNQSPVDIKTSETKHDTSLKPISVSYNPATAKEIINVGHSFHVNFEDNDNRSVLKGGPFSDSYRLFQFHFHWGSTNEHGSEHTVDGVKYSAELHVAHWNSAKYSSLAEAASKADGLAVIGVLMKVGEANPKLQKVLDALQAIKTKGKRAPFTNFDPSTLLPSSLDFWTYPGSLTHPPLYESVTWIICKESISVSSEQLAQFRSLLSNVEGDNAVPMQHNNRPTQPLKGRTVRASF

Compound | Ki (hCA I) [µM] | Ki (hCA XII) [nM] | FR (fluorescence ratio, Rhd 123 uptake with/without modulator) (P-gp [5]; compound 3 µM) | FR (fluorescence ratio, Rhd 123 uptake with/without modulator) (P-gp [5]; compound 30 µM) | Cell Growth (%) (K562/DOX cells [3]; [7]) | Ki (hCA IX) [nM] | Cell Growth (%) (LoVo/DOX cells [4]; [8]) | Cell Growth (%) (LoVo/DOX cells [4]; [9]) | FR (fluorescence ratio, Rhd 123 uptake) (P-gp [6]; compound 10 µM) | Ki (hCA II) [µM] | Cell Growth (%) (K562/DOX cells [3]; [10]) | other results
COc1cccc2c1C(=O)c1c(O)c3c(c(O)c1C2=O)C[C@@](O)(C(=O)CO)C[C@@H]3O[C@H]1C[C@H](N)[C@H](O)[C@H](C)O1 [doxo, doxorubicin] |  |  |  |  |  |  |  |  |  |  |  | IC50 (K562/DOX cells [1]; K562/DOX cells ref 38, read-out: doxorubicin IC50): 2470 ± 250 nM; IC20 (K562/DOX cells [1]; K562/DOX cells, extrapolated from earlier cytotoxicity curves ref 38, read-out: doxorubicin IC20): 500 nM; resistance index to doxorubicin (IC50 resistant/parental) (K562/DOX cells [1]; K562/DOX vs K562 ref 38): 73; IC50 (LoVo/DOX cells [2]; Homo sapiens, LoVo, 72 h, read-out: doxorubicin IC50): 850 ± 84 nM; IC20 (LoVo/DOX cells [2]; Homo sapiens, LoVo, read-out: doxorubicin IC20): 300 nM; resistance index to doxorubicin (IC50 resistant/parental) (LoVo/DOX cells [2]; LoVo/DOX vs LoVo): 13.5; IC50 (LoVo cells): 63 ± 6.6 nM; activity at 0.5 µM (K562/DOX cells [3]; Homo sapiens, doxorubicin 0.5 µM alone, read-out: Cell Growth (%)): 80 ± 3.6%; activity at 0.3 µM (LoVo/DOX cells [4]; Homo sapiens, doxorubicin 0.3 µM alone, read-out: Cell Growth (%)): 80 ± 2.5%
COc1cc(/C=C/C(=O)OCCCCCCCN(C)CCCCCCCOC(=O)COc2ccc3ccc(=O)oc3c2)cc(OC)c1OC [Compound 8, (E)-7-(methyl(7-(2-((2-oxo-2H-chromen-7-yl)oxy)acetoxy)heptyl)amino)heptyl 3-(3,4,5-trimethoxyphenyl)acrylate] | > 10 | 7.1 | 2.33 | 4.15 | 82.0 ± 5.9 | 24.2 | 68.0% and 68.0 ± 2.9% | 32.2% and 32.2 ± 10.7% | 9.90 | > 10 |  | 
CN(CCCCCOC(=O)c1ccc(S(N)(=O)=O)cc1)CCCOC(=O)c1c2ccccc2cc2ccccc12 [Compound 26, 3-(methyl(5-((4-sulfamoylbenzoyl)oxy)pentyl)amino)propyl anthracene-9-carboxylate] | 0.339 | 23.4 | 2.10 | 4.45 | 77.9 ± 6.1 | 241 | 82.0 ± 2.0% | 58.2 ± 5.9% |  | 0.0812 | 74.0 ± 2.6 | FR (fluorescence ratio, Rhd 123 uptake) (P-gp [6]; compound 3 µM): negligible
COc1cc(/C=C/C(=O)OCCCN(C)CCCCCOC(=O)COc2ccc3ccc(=O)oc3c2)cc(OC)c1OC [Compound 2, (E)-3-(methyl(5-(2-((2-oxo-2H-chromen-7-yl)oxy)acetoxy)pentyl)amino)propyl 3-(3,4,5-trimethoxyphenyl)acrylate] | > 10 | 8.9 | 1.57 | 5.81 | 85.6 ± 4.7 | 47.4 | 82.7 ± 10.2% | 41.5% and 41.5 ± 7.3% | 10.50 | > 10 | 65.0 ± 5.2 | 
